Assay results published in article PMC7815984 (Biochemical and biophysical research communications, 2020).

Tests used:
[1] = system: rat aortic ring microvessel outgrowth; assay: Rat aortic ring assay of angiogenesis; format: cell-based, Sprague Dawley rats
[2] = system: Human Umbilical Vein Endothelial Cells (HUVECs); assay: Endothelial cell tube formation assay
[3] = target: TBD (residues 319–425 of human CRBN) (Homo sapiens, UniProt Q96SW2); format: binding; settings: competitive MST
[4] = system: Human Umbilical Vein Endothelial Cells (HUVECs); settings: 12.5–100 μM; cited from earlier work

Chain of TBD (residues 319–425 of human CRBN) (Q96SW2 319-425): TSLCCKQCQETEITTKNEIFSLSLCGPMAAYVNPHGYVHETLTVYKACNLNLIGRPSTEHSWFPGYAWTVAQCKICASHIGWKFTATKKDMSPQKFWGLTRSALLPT

For NC(=O)c1nnn(Cc2cc(Cl)c(C(=O)c3ccc(Cl)cc3)c(Cl)c2)c1N [CAI, carboxyamidotriazole], the “suppression of angiogenesis (positive control)” value ([1]; 30 μM CAI, 4 days) was 95%.

For O=C1c2c(F)c(F)c(F)c(F)c2C(=O)N1c1ccc(F)cc1F [CPS49], the “inhibition of tube formation compared with vehicle control (positive control)” value ([2]; 30 μM CPS49, HUVECs, 18 hours) was 89%.

In the case of O=C1CCC(N2C(=O)c3c(F)c(F)c(F)c(F)c3C2=O)C(=O)N1 (stereo not shown) [Gu3041, 2-(2,6-Dioxo-3-piperidyl)-4,5,6,7-tetrafluoro-isoindoline-1,3-dione], the “tube formation over concentration range (in words)” value ([2]; 0.1–10 μM, HUVECs) is reported as “reduced tube formation in a concentration-dependent manner”.

In the case of CC(C)N1C(=O)NC(=O)C(C)(NC(=O)c2ccccc2)C1=O (stereo not shown) [Gu3407, N-(1-Isopropyl-5-methyl-2,4,6-trioxo-hexahydropyrimidin-5-yl)benzamide], the “inhibition of tube formation at initial screening dose (in words)” value ([2]; 10 μM, HUVECs, 18 hours) is reported as “no inhibition”, the “inhibition of tube formation over concentration range (in words)” value ([2]; 10–100 μM, HUVECs) is reported as “no significant inhibition” and the “binding to TBD of human CRBN (in words)” value [3] is reported as “did not show any binding”.

For CO[C@@H]1[C@H](OC(=O)NC(=O)CCl)CC[C@]2(CO2)[C@H]1[C@@]1(C)O[C@@H]1CC=C(C)C [TNP-470], the “suppression of angiogenesis (positive control)” value ([1]; 50 μM TNP-470, 4 days) was 92%.

For O=C1CCC(N2C(=O)c3ccccc3C2=O)C(=O)N1 (stereo not shown) [Thalidomide, 2-phthalimidinoglutarimide], the “antiangiogenic activity in tube formation (in words)” value ([2]; 100 μM, HUVECs) is listed as “did not demonstrate potent antiangiogenic activity”, the “tube formation, previous results (in words)” value [4] is listed as “failed to significantly block tube formation” and the “microvessel outgrowth (in words)” value ([1]; 100 μM, 4 days) is listed as “not significantly blocked”.
